For data set [1], the system named is YAP1 protein level in A549 cells. Kind of data set: YAP1 protein level by Western blot in A549 cells. It is filed as cell-based. The method, then:
(§1) A549 cells were treated with TD034 at 5 and 10 μM for 24 hr. Western blot was used to check for YAP1 protein level. qRT-PCR was used to check for YAP1 downstream genes transcription (CTGF and CYR61). Total RNA was extracted using IBI Isolate Total Extraction Reagent Kit (IB47602). […] of RNA was reverse transcribed using OneScript Plus cDNA Synthesis Kit (ABM G236) according to the manufacturer’s protocol. Real-time PCR was performed using BlasTaq 2X qPCR MasterMix (ABM G892) on a QuantStudio 3 Real-Time PCR System. All qPCR reactions were performed in triplicates. The list of primers is included in the Supporting Information.

Data set [2] deals with YAP1 target genes CTGF and CYR61 in A549 cells. Kind of data set: mRNA level of YAP1 and YAP1 target genes (CTGF, CYR61) by qRT-PCR in A549 cells. It is filed as cell-based. The method, then: as §1
Background: In qPCR the cycle at which signal appears reflects the starting amount.

The subject of data set [3] is α-tubulin, p53, and histone H3 acetylation levels. The experiment in a line: Acetylation levels of α-tubulin, p53 and histone H3 by Western blot in cells. It is filed as cell-based. The settings on record: 3 h of treatment. The source says:
. As a positive control, we used trichostatin A (TSA), a nonselective HDAC inhibitor against both class I and class IIb HDACs.[25] […]

For data set [4] the following is noted: pH 8.
In data set [5] the target is HDAC1 (Homo sapiens, UniProt Q13547). The experiment in a line: HDAC1 enzyme activity assay (Ac-H3K9, HPLC). The settings on record: read-out: HDAC1, % inhibition.
Sequence of HDAC1 (Q13547 whole entry): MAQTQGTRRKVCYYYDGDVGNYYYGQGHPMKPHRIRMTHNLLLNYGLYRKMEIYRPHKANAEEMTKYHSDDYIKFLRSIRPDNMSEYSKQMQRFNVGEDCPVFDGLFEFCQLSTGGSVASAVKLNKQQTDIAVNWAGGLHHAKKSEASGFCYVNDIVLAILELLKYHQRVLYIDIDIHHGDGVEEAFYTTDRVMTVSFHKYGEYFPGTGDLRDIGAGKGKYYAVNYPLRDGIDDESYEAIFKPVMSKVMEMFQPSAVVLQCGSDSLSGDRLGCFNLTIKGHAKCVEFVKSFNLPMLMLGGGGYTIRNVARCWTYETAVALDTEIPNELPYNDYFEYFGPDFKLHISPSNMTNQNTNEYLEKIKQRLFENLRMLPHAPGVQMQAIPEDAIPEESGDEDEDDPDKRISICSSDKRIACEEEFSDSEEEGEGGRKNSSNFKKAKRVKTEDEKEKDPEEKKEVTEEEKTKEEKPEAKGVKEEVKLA
Protocol: (§2) For HDAC1, 6, 8, and SIRT1-2, Ac-H3K9 was used as a substrate. […] The reaction was conducted for 15 min (HDAC11), 30 min (HDAC1, 4, 6, 8), and 5 min (SIRT1-2). Then, 20 μL of 0.2% TFA/acetonitrile was added to quench the reaction. The samples were analyzed by HPLC using a Chromolith HighResolution RP-18 end-capped 100 mm × 4.6 mm column (EMD Millipore). Mobile phase A was 0.1% TFA in water and mobile phase B was 0.1% TFA in acetonitrile. The total flow rate was 1 mL/min, and the gradient was 0% B (2 min), 0–60% B (7 min), 100% B (4 min), and 0% B (2 min). The relative ratio of product/substrate in each sample was compared to control sample (no inhibitor) to determine the inhibition level.
Data set [6] addresses T1, HDAC6 (Homo sapiens, UniProt Q9UBN7).
T1 sequence (Q9UBN7 1-1215): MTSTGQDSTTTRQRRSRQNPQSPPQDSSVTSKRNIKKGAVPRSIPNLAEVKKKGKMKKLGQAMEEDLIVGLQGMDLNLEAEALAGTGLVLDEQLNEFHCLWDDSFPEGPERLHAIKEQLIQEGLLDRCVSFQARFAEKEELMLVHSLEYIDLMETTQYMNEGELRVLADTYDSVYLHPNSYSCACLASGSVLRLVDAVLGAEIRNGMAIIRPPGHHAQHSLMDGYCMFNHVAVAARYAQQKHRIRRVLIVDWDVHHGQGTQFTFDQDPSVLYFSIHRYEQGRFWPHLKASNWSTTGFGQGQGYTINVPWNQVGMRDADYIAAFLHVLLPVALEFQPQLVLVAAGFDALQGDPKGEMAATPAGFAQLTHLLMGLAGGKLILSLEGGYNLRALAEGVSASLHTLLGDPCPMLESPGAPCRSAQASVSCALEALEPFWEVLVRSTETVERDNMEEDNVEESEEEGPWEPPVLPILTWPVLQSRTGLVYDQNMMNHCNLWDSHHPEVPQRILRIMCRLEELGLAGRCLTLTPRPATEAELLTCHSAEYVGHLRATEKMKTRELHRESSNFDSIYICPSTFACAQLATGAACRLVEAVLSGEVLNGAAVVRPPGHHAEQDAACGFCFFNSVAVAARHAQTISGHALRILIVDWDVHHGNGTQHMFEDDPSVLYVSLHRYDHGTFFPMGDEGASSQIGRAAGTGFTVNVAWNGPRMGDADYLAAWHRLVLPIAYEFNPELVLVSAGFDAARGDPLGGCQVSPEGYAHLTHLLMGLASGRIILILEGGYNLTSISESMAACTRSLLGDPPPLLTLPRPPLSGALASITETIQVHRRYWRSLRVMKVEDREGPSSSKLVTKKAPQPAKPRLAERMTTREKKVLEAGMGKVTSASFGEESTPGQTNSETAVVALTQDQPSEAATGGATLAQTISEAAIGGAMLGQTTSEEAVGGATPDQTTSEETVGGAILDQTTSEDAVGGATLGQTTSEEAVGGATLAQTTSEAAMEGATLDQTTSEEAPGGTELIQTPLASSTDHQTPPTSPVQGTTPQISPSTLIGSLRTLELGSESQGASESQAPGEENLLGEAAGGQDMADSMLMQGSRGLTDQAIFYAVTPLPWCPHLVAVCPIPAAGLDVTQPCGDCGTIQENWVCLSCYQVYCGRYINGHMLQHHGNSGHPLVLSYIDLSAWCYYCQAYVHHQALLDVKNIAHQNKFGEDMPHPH
The experiment in a line: HDAC6 enzyme activity assay (Ac-H3K9, HPLC). To be noted: read-out: HDAC6, % inhibition.
Protocol: as §2

Data set [7] concerns the target T2, SIRT1 (Homo sapiens, UniProt Q96EB6).
T2 sequence (Q96EB6 1-747): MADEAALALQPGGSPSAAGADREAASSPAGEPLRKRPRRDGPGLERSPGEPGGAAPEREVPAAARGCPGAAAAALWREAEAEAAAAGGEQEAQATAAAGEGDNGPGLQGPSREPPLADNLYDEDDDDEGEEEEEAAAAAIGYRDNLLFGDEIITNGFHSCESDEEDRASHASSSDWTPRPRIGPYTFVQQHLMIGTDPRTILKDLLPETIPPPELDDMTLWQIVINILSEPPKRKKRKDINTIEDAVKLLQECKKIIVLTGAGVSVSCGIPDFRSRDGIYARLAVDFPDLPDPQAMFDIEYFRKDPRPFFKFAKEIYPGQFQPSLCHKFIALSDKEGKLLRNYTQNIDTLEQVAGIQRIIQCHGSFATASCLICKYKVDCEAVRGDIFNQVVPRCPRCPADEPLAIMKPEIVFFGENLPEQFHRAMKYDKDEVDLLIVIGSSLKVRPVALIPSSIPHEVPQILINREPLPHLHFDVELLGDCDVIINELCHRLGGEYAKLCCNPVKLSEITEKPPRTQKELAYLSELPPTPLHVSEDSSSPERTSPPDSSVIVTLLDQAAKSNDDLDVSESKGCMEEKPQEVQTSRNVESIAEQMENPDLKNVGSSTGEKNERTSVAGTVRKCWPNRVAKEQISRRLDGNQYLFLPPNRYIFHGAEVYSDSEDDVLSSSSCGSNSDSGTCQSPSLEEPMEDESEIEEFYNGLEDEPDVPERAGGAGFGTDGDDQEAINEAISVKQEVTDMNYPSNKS
Kind of data set: SIRT1 enzyme activity assay (Ac-H3K9, NAD+, HPLC). To be noted: read-out: SIRT1, % inhibition.
Protocol: as §2

In data set [8] the target is HDAC4 (Homo sapiens, UniProt P56524). Kind of data set: HDAC4 enzyme activity assay (trifluoroacetyl-H3K9, HPLC). The settings on record: read-out: HDAC4, % inhibition.
Sequence of HDAC4 (P56524 whole entry): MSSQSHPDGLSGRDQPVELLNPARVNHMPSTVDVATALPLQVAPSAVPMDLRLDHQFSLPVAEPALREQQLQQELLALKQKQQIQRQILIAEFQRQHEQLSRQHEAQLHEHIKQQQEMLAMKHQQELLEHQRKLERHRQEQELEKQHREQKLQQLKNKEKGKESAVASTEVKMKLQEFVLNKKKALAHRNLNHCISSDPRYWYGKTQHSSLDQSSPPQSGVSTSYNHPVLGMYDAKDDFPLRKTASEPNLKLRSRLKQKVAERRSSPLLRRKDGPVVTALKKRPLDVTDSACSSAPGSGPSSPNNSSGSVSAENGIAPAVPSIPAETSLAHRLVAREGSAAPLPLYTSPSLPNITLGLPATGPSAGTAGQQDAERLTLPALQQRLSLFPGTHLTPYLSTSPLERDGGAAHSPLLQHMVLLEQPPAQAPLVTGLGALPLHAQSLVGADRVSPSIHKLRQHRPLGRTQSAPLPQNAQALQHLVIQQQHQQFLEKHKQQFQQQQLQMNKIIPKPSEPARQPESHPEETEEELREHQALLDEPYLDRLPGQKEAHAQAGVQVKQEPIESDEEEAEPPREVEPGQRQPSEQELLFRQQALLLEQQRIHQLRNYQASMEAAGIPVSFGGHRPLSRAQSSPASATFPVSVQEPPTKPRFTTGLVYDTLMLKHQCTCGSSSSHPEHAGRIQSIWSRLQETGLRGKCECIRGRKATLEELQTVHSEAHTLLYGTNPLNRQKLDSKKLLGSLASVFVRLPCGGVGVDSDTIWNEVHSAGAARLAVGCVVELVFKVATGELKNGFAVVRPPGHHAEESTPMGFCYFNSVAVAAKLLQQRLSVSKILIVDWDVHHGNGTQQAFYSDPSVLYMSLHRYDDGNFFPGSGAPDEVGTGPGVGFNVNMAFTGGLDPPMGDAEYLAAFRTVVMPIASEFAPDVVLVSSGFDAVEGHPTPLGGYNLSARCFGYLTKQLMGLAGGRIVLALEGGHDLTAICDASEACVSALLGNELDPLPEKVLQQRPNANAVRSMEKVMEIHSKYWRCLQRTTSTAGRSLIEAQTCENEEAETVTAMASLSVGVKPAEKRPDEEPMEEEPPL
Protocol: as §2

The structures appear in SMILES notation.

Experimental findings from publication PMC10127203, “Trapoxin A Analogue as a Selective Nanomolar Inhibitor of HDAC11” (ACS Chemical Biology, 2023) are described below.

In general, inhibition refers to the percentage by which the read-out fell short of the control. For `CCCCCCCCCCC[C@H]1O[C@@H]1C(=O)CCCCC[C@@H]1NC(=O)[C@H]2CCCCN2C(=O)[C@H](Cc2ccccc2)NC(=O)[C@H](Cc2ccccc2)NC1=O` [TD034], the YAP1 protein levels result in data set [1] (A549 cells, 5 and 10 μM, 24 hr) is “significant reduction”. In addition, the YAP1 protein level entry in data set [1] (wild-type (WT) A549 cells) is recorded as “reduced”. Further, the “YAP1 mRNA level” value in data set [2] was “not affected”. Besides, the “mRNA levels of YAP1 target genes CTGF and CYR61” value in data set [2] (5 and 10 μM, 24 hr) was “decrease”. Further, in data set [3], the “level of acetylated α-tubulin (HDAC6 and SIRT2 target)” value was “did not have such an effect”; the “levels of acetylated histone H3 and acetylated p53 (class I HDACs and SIRT1 target)” value is recorded as “did not have such an effect”. For the same compound, the “stability in Tris buffer and DTT” value in data set [4] is on record as “relatively stable”. Moreover, in data set [5], the inhibition at 1 µM was 0%, the inhibition at 10 µM is 0% and the inhibition at 25 µM turned out to be 0%. In data set [6], the inhibition at 1 µM stood at 0%, the inhibition at 10 µM was determined as 0% and the inhibition at 25 µM turned out to be 0%. In data set [7], the inhibition at 1 µM turned out to be 0%, the inhibition at 10 µM came out at 0% and the inhibition at 25 µM is 0%. In data set [8], the inhibition at 1 µM was 0%, the inhibition at 10 µM is 0% and the inhibition at 25 µM worked out at 0%.
